Experimental data taken from the METLIN SMRT retention time set (Domingo-Almenara et al. 2019).

Assay: gradient 5% acetonitrile 3 min, to 50% in 2 min, to 85% in 15 min, held 3 min, 100 µL/min
Conditions: column: Zorbax Extend-C18 2.1 x 50 mm; eluents: water / acetonitrile, 0.1% formic acid
Method in brief: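 Retention time was recorded from adduct peaks, which were picked computationally and each inspected manually. Pure standards ran in mixtures of ~100 molecules on HPLC coupled to a quadrupole time-of-flight mass spectrometer, in positive and negative ionization mode, through a Zorbax Extend-C18 column (2.1 × 50 mm, 1.8 μm) at 100 μL/min. Eluents were water and acetonitrile, each with 0.1% formic acid.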

SMILES | RP-LC retention time
CCc1cccc(CC)c1NC(=O)N1Cc2[nH]nc(NC(=O)c3ccc(N4CCN(C)CC4)cc3)c2C1 | 664 s
Cc1ccccc1C1CCCN1C(=O)c1ccnn1C (centres undefined) | 768 s
Cc1cccc(N2CCN(CC(O)COc3ccccc3Cl)CC2)c1 (centres undefined) | 828 s
Cc1cccc(-c2nc3sc(N4CCCCC4)nn3c2NC(=O)C2CC2)c1 | 891 s
COc1ccccc1NC(=O)C1CCc2nc(N3CCOCC3)ncc2C1 (centres undefined) | 741 s
Cc1cc2nn(CC(=O)Nc3ccccc3)c(=O)n2c(Nc2ccccc2)n1 | 965 s
N#Cc1nc(-c2ccco2)oc1N1CCN(C(=O)c2ccccc2F)CC1 | 770 s
O=C(CCCS(=O)(=O)c1ccc(Cl)cc1)Nc1ccc([N+](=O)[O-])cc1 | 695 s
COCC(=O)Nc1ccc(N2CCC(N3CCCCC3)CC2)cc1C(=O)O | 654 s
COCCC1CCN(C(=O)COc2ccc(Cl)cc2)CC1 | 849 s
Cc1ccc(Nc2c(-c3cccc(Cl)c3)nc3ccc(Cl)cn23)cc1 | 1080 s
COc1ccc(C(=O)N2CC3CN(S(=O)(=O)c4ccc(OC)cc4)CC(C2)O3)cc1 | 769 s
CCN1C(=O)c2cccnc2Sc2cc(CNC(=O)c3cccc(C#N)c3)ccc21 | 756 s
COc1ccc(OC)c(NC(=O)CN2c3ccc(F)cc3-c3ccccc3S2(=O)=O)c1 | 1010 s
COC(=O)c1c2c(nc3ccccc13)CCN(C(=O)Nc1ccccc1)C2 | 743 s
O=C(CN1CCC2(CC1)NC(=O)c1ccccc1N2)Nc1ccc(Cl)cc1 | 637 s
CCOc1ccc(-c2csc(Cc3nc(-c4ccccc4)no3)n2)cc1 | 1230 s
N#Cc1cccc(NC(=O)C(=O)c2ccc[nH]2)c1 | 788 s
Cc1cc(C)cc(-n2ccn(Cc3nc(-c4cccc(F)c4)no3)c(=O)c2=O)c1 | 901 s
Cc1cccc(CNC(=O)C2(C)Cn3cnc(C(=O)NC4CC4)c3C(=O)N2C2CC2)c1 (centres undefined) | 706 s
Cc1nc(C(=O)Nc2ccc(Cl)c(C)c2)c(C)o1 | 1010 s
Cc1ccc2[nH]cc(CCNC(=O)C3CCCN(c4nccc(C)n4)C3)c2c1 (centres undefined) | 741 s
O=C(NCc1ccc(N2CCCCC2)cc1)c1cccc2c1CCN2C(=O)C1CC1 | 634 s

SMILES | RP-LC retention time
Cc1ccc(N2CC(c3nc(-c4ccc5c(c4)OCO5)no3)CC2=O)c(C)c1 (centres undefined) | 911 s
Cc1noc(C2CN(C(=O)Nc3c(F)cccc3F)CC23CCOCC3)n1 (centres undefined) | 654 s
CNC(=O)C(=O)Nc1ccc(N(C)C)cc1 | 486 s
COc1ccc(C2(C(=O)NCc3nn(C)c4c3CN(C)CC4)CC2)cc1 | 865 s
Cc1cc(C)cc(NC(=O)C2CCN(c3cncnc3N3CCOCC3)CC2)c1 | 657 s
COc1ccc(NC(=O)COc2ccccc2)c2ccccc12 | 893 s
O=C(Nc1cccc(OCc2nnc(-c3ccccc3)o2)c1)c1cccnc1 | 750 s
O=C(NCCc1c[nH]c2ccc(Cl)cc12)C1CCN(c2ccncc2)CC1 | 643 s
COCc1cc2nn(CC(=O)Nc3ccc(OC)c(F)c3)c(=O)n2c(-c2ccccc2)n1 | 797 s
CCN1C(=O)NC(c2ccc(C(F)(F)F)cc2)C2=C1CN(CCC(=O)N1CCOCC1)C2=O (centres undefined) | 638 s
Cc1ccc2ncn(C3CCN(S(=O)(=O)c4ccc(F)c(F)c4)CC3)c(=O)c2c1 | 946 s
CCNc1cc(N2CCC(CCC(=O)NCc3ccc(F)cc3F)CC2)ncn1 | 669 s
COc1ccc(-c2cn3cccnc3n2)cc1NC(=O)c1ccc(C(F)(F)F)cc1 | 778 s
O=C(NCCc1ccccc1)C1=C2CCCN2c2ccc(F)cc2S1(=O)=O | 909 s
CC(=O)Nc1c(C)nn(-c2ccccc2)c1N1CCC(C(=O)Nc2cccc(C(C)=O)c2)CC1 | 709 s
CC1=NS(=O)(=O)N(C)C=C1C(=O)OCc1ccc(C)cc1 | 975 s
Cn1ncc2c(N3CCSCC3)nc(C(=O)NCc3ccncc3)nc21 | 566 s
CCOc1ccc(NC(=O)c2cc3ccccc3cc2O)cc1 | 1130 s
Cc1ccc(-n2cc3c(c(C(=O)NC4CC4)c2=O)CC(C)(C)CC3=O)cc1 | 867 s
COc1cccc(NC(=O)C2CCN(S(=O)(=O)c3cc(C(=O)N4CCOCC4)cs3)CC2)c1 | 747 s
O=C(CSc1ccc(N2CCCC(C(=O)NC3CC3)C2)nn1)Nc1ccc(F)cc1F (centres undefined) | 617 s
CCn1c(=O)c(C(=O)NCc2ccccc2F)nc2cccnc21 | 824 s
CC1=C(c2ccc(C)cc2)S(=O)(=O)N=C1N1CCCN(C(=O)C2CCCC2)CC1 | 872 s

SMILES | RP-LC retention time
CCOc1ccc(-n2nc(-c3nc(-c4ccc5c(c4)OCO5)no3)c3ccccc3c2=O)cc1 | 1290 s
COc1ccc(-c2ncc3c(n2)CCN(S(=O)(=O)c2ccc(C)cc2)C3)cc1 | 1050 s
COc1cc(C)c(S(=O)(=O)Nc2ccc(-c3cn4ccc(C)nc4n3)cc2)cc1C | 683 s
Cc1cccc(N2CCN(C(=O)C3CCN(c4cnc5nccnc5c4)CC3)CC2)c1C | 881 s
CCn1cc(CN2C[C@@H](COC)[C@H](c3nc(C)no3)C2)c2ccccc21 | 676 s
O=C(Nc1ccc(F)cc1F)N1CCC(N(C(=O)C2CC2)C2CCOCC2)CC1 | 719 s
Cc1cc(NC(=O)Cn2c(=O)c3cc(C4CC4)nn3c3ncccc32)ccc1F | 818 s
COC(=O)c1nc(NC(=O)Cn2nc3c(cc2=O)CCCC3)sc1CC(C)C | 855 s
CCc1nnc(-c2ccc(NC(=O)COc3ccccc3F)cc2)o1 | 772 s
CC(C)NC(=O)c1ccc(OCC2CCCN(C(=O)Cc3cccc(F)c3)C2)cc1 (centres undefined) | 955 s
CCOc1ccccc1NC(=O)Cn1c(=O)c(CCC(=O)NCC(C)C)nc2ccccc21 | 762 s
O=C(Cn1c(CN2CCCCC2)nc2ccccc21)N1CCOCC1 | 583 s
COCCn1nc(N2CCCC(NS(=O)(=O)c3c(C)c(C)cc(C)c3C)C2)ccc1=O (centres undefined) | 875 s
CCc1nnc(-c2cn(CC(=O)Nc3ccc4c(c3)OCCO4)c3ccccc23)o1 | 817 s
CCN(CC)CCCNC(=O)C1CCCN(c2nnc(C)c3c(C)n(-c4ccc(Cl)cc4)nc23)C1 (centres undefined) | 598 s
Cc1ccc(N2CC(C(=O)NCc3nn(C)c4ccccc34)CC2=O)cc1 (centres undefined) | 782 s
C=CC1=C(C(=O)O)N2C(=O)[C@@H](NC(=O)/C(=N/OCC(=O)O)c3csc(N)n3)[C@H]2SC1 | 644 s
O=C(CN1CCCCCC1)N1CCC2(CCC2O)CC1 (centres undefined) | 555 s
CCC1CN2C=NC(N3CCN(C(=O)Nc4cccc(F)c4C)CC3)=CC2=N1 (centres undefined) | 671 s
CCCNC(=O)c1cc2c(s1)N(C)CCC2 | 771 s
C=CCn1c(=O)c2ccccc2n(Cc2nc(-c3ccc(OC(C)C)cc3)no2)c1=O | 1130 s
CC1CCN(c2cc(-n3cnc(C(=O)N(C)Cc4ccccc4)c3)ncn2)CC1 | 1050 s
Cn1nc(C(=O)NCc2ccc3c(c2)OCO3)c2c1CCN(C(=O)COc1ccc(F)cc1)C2 | 765 s

SMILES | RP-LC retention time
CC(C)c1nc2c(c(=O)n1CC(=O)NCc1ccccc1)CN(Cc1ccccc1)CC2 | 659 s
Cc1cc(N2CCN(C(=O)Nc3ccc(Cl)cc3)CC2)nc(N2CCOCC2)n1 | 655 s
Cc1ccc(F)cc1NC(=O)Cn1nc(N2CCCCCC2)c2ccccc2c1=O | 1140 s
Cc1cc(C)c2sc(N(Cc3cccnc3)C(=O)c3snnc3C)nc2c1 | 823 s
CC(C)(C)C(=O)N1CCC2(CC1)CN(Cc1ccccc1)CC2CO (centres undefined) | 607 s
Cc1ccc(NC(=O)N2C[C@@H](F)C[C@H]2C(=O)N2CCCCC2)c(Cl)c1 | 779 s
Cc1ccc(NC(=O)C2C(=O)NC3(C)CC2c2ccccc2O3)c(C)c1 (centres undefined) | 912 s
O=C(Nc1ccc(N2CCN(c3ccccc3)C2=O)nc1)c1cccs1 | 836 s
CC(C)(C)c1cc(C(=O)Nc2ccc(C#N)cc2)nc2ccnn12 | 1200 s
CC(C)NC(=O)c1csc(N2CCCCC2)n1 | 919 s
CCOCCCNC(=O)Cn1cccc1-c1nc(-c2ccc(Cl)cc2)cs1 | 1060 s
O=C(NCc1cccnc1)c1ccc2ccnc(N3CCN(C(=O)c4ccco4)CC3)c2c1 | 563 s
Cn1cnc(S(=O)(=O)N2CCC(C(=O)Nc3cccc(Cl)c3)CC2)c1 | 753 s
O=C(C1CC1)N1CCc2sc(S(=O)(=O)Nc3ccc(F)cc3Cl)cc2C1 | 870 s
CC(C)NC(=O)c1c2c(nc3ccc(F)cc13)CCCC2 | 631 s
O=C(C1=CN(c2ccc(Cl)cc2)c2cc(Cl)ccc2S1(=O)=O)N1CCOCC1 | 875 s
COc1ccc(C2CC(=O)N(c3cc(C)ccc3C)C(=O)C2)cc1OC | 872 s
Cc1cc(C)c(S(=O)(=O)N2CCc3nn(CC(C)C)c(=O)n3CC2)c(C)c1 | 664 s
CCC(C)Nc1nc(-c2ccc(Cl)cc2)nc2ccccc12 (centres undefined) | 822 s
COC(=O)c1c(NCCC(C)C)c2cc(F)ccc2[nH]c1=O | 792 s
